Laboratory results: BindingDB's records for doi:10.7270/Q2NK3CFW (Nmmlsc, 2009)

Each compound was assayed against Cell division control protein 42 homolog (Homo sapiens, UniProt P60953) (assay: blockade of fluorescent GTP uptake by Cdc42 wt – biochemical, bead-based multiplex flow cytometry, oxadiazole series, SAR follow-up (AID 2037)). Conditions: not given.
Sequence of Cell division control protein 42 homolog (P60953 whole entry): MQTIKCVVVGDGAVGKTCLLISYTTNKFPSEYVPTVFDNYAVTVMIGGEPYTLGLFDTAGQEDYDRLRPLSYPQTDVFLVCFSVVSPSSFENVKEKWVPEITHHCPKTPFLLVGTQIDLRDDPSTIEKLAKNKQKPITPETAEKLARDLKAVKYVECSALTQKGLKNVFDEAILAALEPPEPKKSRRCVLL

| Compound | EC50 |
| --- | --- |
| COc1ccc(-c2cc(CCC(=O)N3CCN(c4cc(C)ccc4C)CC3)on2)cc1 [1-[4-(2,5-dimethylphenyl)piperazin-1-yl]-3-[3-(4-methoxyphenyl)-1,2-oxazol-5-yl]propan-1-one] | > 30000 nM |
| Cc1ccc(C)c(N2CCN(C(=O)CCc3nc(-c4cccc(C(F)(F)F)c4)no3)CC2)c1 [KUC103380N] | > 30000 nM |
| COc1cccc(-c2noc(CCC(=O)N3CCN(c4cc(C)ccc4C)CC3)n2)c1 | 2770 nM |
| Cc1ccc(C)c(N2CCN(C(=O)CCc3nc(-c4ccccc4C(F)(F)F)no3)CC2)c1 | 4950 nM |
| Cc1cccc(-c2noc(CCC(=O)N3CCN(c4cc(C)ccc4C)CC3)n2)c1 [1-[4-(2,5-dimethylphenyl)piperazin-1-yl]-3-[3-(3-methylphenyl)-1,2,4-oxadiazol-5-yl]propan-1-one] | 1020 nM |
| COc1ccc(-c2coc(CCC(=O)N3CCN(c4cc(C)ccc4C)CC3)n2)cc1 [1-[4-(2,5-dimethylphenyl)piperazin-1-yl]-3-[4-(4-methoxyphenyl)-1,3-oxazol-2-yl]propan-1-one] | 2280 nM |
| COc1ccc(-c2cc(CCC(=O)N3CCN(c4cc(C)ccc4C)CC3)[nH]n2)cc1 [UNM-0000306150] | > 30000 nM |
| COc1ccc(-c2ccc(CCC(=O)N3CCN(c4cc(C)ccc4C)CC3)o2)cc1 [KUC103447N] | > 30000 nM |
| Cc1ccc(C)c(N2CCN(C(=O)CCc3nc(-c4cccc(F)c4)no3)CC2)c1 [KUC103366N] | > 30000 nM |
| Cc1ccc(C)c(N2CCN(C(=O)CCc3nc(-c4ccccc4F)no3)CC2)c1 [KUC103401N] | > 30000 nM |
| Cc1ccc(C)c(N2CCN(C(=O)CCc3nc(-c4ccccc4C)no3)CC2)c1 | > 30000 nM |
| COc1ccc(-c2ccc(CCC(=O)N3CCN(c4cc(C)ccc4C)CC3)[nH]2)cc1 [1-[4-(2,5-dimethylphenyl)piperazin-1-yl]-3-[5-(4-methoxyphenyl)-1H-pyrrol-2-yl]propan-1-one] | > 30000 nM |
| COc1ccc(-c2ccc(CCC(=O)N3CCN(c4cc(C)ccc4C)CC3)s2)cc1 | > 30000 nM |
| Cc1ccc(C)c(N2CCN(C(=O)CCc3nc(-c4ccccc4)no3)CC2)c1 [UNM-0000306070] | 4000 nM |
| Cc1ccc(C)c(N2CCN(C(=O)CCc3nc(-c4ccccc4Cl)no3)CC2)c1 [3-[3-(2-chlorophenyl)-1,2,4-oxadiazol-5-yl]-1-[4-(2,5-dimethylphenyl)-1-piperazinyl]-1-propanone] | > 30000 nM |
| Cc1ccc(C)c(N2CCN(C(=O)CCc3nc(-c4cccc(Cl)c4)no3)CC2)c1 [UNM-0000306086] | 2180 nM |

The next lines start with the values.

| EC50 | Compound |
| --- | --- |
| > 30000 nM | COc1ccc(-c2noc(CCC(=O)N3CCN(c4ccccc4OC)CC3)n2)cc1 [3-[3-(4-methoxyphenyl)-1,2,4-oxadiazol-5-yl]-1-[4-(2-methoxyphenyl)-1-piperazinyl]-1-propanone] |
| > 30000 nM | COc1ccc(-c2noc(CCC(=O)N3CCN(c4cccc(C)c4)CC3)n2)cc1 [UNM-0000306125] |
| 805 nM | COc1ccc(-c2noc(CCC(=O)N3CCN(c4ccccc4Cl)CC3)n2)cc1 [1-[4-(2-chlorophenyl)piperazin-1-yl]-3-[3-(4-methoxyphenyl)-1,2,4-oxadiazol-5-yl]propan-1-one] |
| 6210 nM | COc1ccc(-c2noc(CCCC(=O)N3CCN(c4cc(C)ccc4C)CC3)n2)cc1 [KUC103353N] |
| > 30000 nM | COc1ccc(-c2noc(CCCCC(=O)N3CCN(c4cc(C)ccc4C)CC3)n2)cc1 [1-[4-(2,5-dimethylphenyl)-1-piperazinyl]-5-[3-(4-methoxyphenyl)-1,2,4-oxadiazol-5-yl]-1-pentanone] |
| > 30000 nM | COc1ccc(-c2noc(CCC(=O)N3CCN(c4cccc(Cl)c4)CC3)n2)cc1 |
| > 30000 nM | COc1ccc(-c2noc(CCC(=O)N3CCN(c4cccc(F)c4)CC3)n2)cc1 [1-[4-(3-fluorophenyl)piperazin-1-yl]-3-[3-(4-methoxyphenyl)-1,2,4-oxadiazol-5-yl]propan-1-one] |
| 4370 nM | Cc1ccc(-c2noc(CCC(=O)N3CCN(c4cc(C)ccc4C)CC3)n2)cc1 [1-[4-(2,5-dimethylphenyl)-1-piperazinyl]-3-[3-(4-methylphenyl)-1,2,4-oxadiazol-5-yl]-1-propanone] |
| > 30000 nM | COc1ccc(-c2noc(CCC(=O)N3CCN(c4ccc(Br)cc4)CC3)n2)cc1 [1-[4-(4-bromophenyl)piperazin-1-yl]-3-[3-(4-methoxyphenyl)-1,2,4-oxadiazol-5-yl]propan-1-one] |
| 1720 nM | Cc1ccc(C)c(N2CCN(C(=O)CCc3nc(-c4ccc(Cl)cc4)no3)CC2)c1 [UNM-0000306083] |
| > 30000 nM | COc1ccc(-c2noc(CCC(=O)N3CCN(c4ccccc4)CC3)n2)cc1 [3-[3-(4-methoxyphenyl)-1,2,4-oxadiazol-5-yl]-1-(4-phenylpiperazin-1-yl)propan-1-one] |
| > 30000 nM | COc1ccc(-c2noc(CC(=O)N3CCN(c4cc(C)ccc4C)CC3)n2)cc1 [1-[4-(2,5-dimethylphenyl)piperazin-1-yl]-2-[3-(4-methoxyphenyl)-1,2,4-oxadiazol-5-yl]ethanone] |
| > 30000 nM | COc1ccc(-c2noc(CCC(=O)N3CCN(c4ccc(Cl)cc4)CC3)n2)cc1 [UNM-0000306121] |
| > 30000 nM | COc1ccc(-c2noc(CCC(=O)N3CCN(c4ccc(C(F)(F)F)cc4)CC3)n2)cc1 [3-[3-(4-methoxyphenyl)-1,2,4-oxadiazol-5-yl]-1-[4-[4-(trifluoromethyl)phenyl]piperazin-1-yl]propan-1-one] |
| 1710 nM | COc1ccc(-c2noc(CCC(=O)N3CCN(c4ccccc4C)CC3)n2)cc1 |
| 2310 nM | COc1ccc(-c2noc(CCC(=O)N3CCN(c4ccccc4Br)CC3)n2)cc1 [KUC103370N] |
| 1420 nM | COc1ccc(-c2noc(CCC(=O)N3CCC(c4cc(C)ccc4C)CC3)n2)cc1 [KUC103432N] |
| > 30000 nM | COc1ccc(-c2noc(CCC(=O)N3CCN(c4ccc(F)cc4)CC3)n2)cc1 [KUC103398N] |
| > 30000 nM | COc1ccc(-c2noc(CCC(=O)N3CCN(c4cccc(Br)c4)CC3)n2)cc1 [1-[4-(3-bromophenyl)-1-piperazinyl]-3-[3-(4-methoxyphenyl)-1,2,4-oxadiazol-5-yl]-1-propanone] |

Same assay, conditions: inactive by the depositor's call

| Compound | EC50 |
| --- | --- |
| COc1ccc(-c2cccc(CCC(=O)N3CCN(c4cc(C)ccc4C)CC3)c2)cc1 [UNM-0000306127] | 3670 nM |
| Cc1ccc(C)c(N2CCN(C(=O)CCc3nc(-c4ccccc4Br)no3)CC2)c1 [3-[3-(2-bromophenyl)-1,2,4-oxadiazol-5-yl]-1-[4-(2,5-dimethylphenyl)-1-piperazinyl]-1-propanone] | 2340 nM |
| COc1ccccc1-c1noc(CCC(=O)N2CCN(c3cc(C)ccc3C)CC2)n1 [UNM-0000306071] | 1540 nM |
| Cc1ccc(C)c(N2CCN(C(=O)CCc3nc(-c4ccc(N(C)C)cc4)no3)CC2)c1 [KUC103409N] | 1190 nM |
| Cc1ccc(C)c(N2CCN(C(=O)CCc3nc(-c4ccc(C(F)(F)F)cc4)no3)CC2)c1 [1-[4-(2,5-dimethylphenyl)-1-piperazinyl]-3-[3-[4-(trifluoromethyl)phenyl]-1,2,4-oxadiazol-5-yl]-1-propanone] | 3210 nM |
| Cc1ccc(C)c(N2CCN(C(=O)CCc3nc(-c4cccc(Br)c4)no3)CC2)c1 [KUC103367N] | 2140 nM |

Next, values leading:

| EC50 | Compound |
| --- | --- |
| 360 nM | Cc1ccc(C)c(N2CCN(C(=O)CCc3nc(-c4ccc(F)cc4)no3)CC2)c1 [KUC103364N] |
| 1980 nM | COc1ccc(-c2noc(CCC(=O)N3CCN(c4ccccc4C(F)(F)F)CC3)n2)cc1 [UNM-0000306082] |
| 1620 nM | Cc1ccc(C)c(N2CCN(C(=O)CCc3nc(-c4ccc(Br)cc4)no3)CC2)c1 [UNM-0000306072] |
| 1150 nM | COc1ccc(-c2noc(CCC(=O)N3CCN(c4cccc(C)c4C)CC3)n2)cc1 [1-[4-(2,3-dimethylphenyl)-1-piperazinyl]-3-[3-(4-methoxyphenyl)-1,2,4-oxadiazol-5-yl]-1-propanone] |
| 655 nM | COc1ccc(-c2noc(CCC(=O)N3CCN(c4ccccc4F)CC3)n2)cc1 [1-[4-(2-fluorophenyl)piperazin-1-yl]-3-[3-(4-methoxyphenyl)-1,2,4-oxadiazol-5-yl]propan-1-one] |
| 566 nM | COc1ccc(-c2noc(CCC(=O)N3CCN(c4ccc(C)cc4)CC3)n2)cc1 [3-[3-(4-methoxyphenyl)-1,2,4-oxadiazol-5-yl]-1-[4-(4-methylphenyl)piperazin-1-yl]propan-1-one] |
| 450 nM | COc1ccc(-c2noc(CCC(=O)N3CCN(c4ccc(OC)cc4)CC3)n2)cc1 [3-[3-(4-methoxyphenyl)-1,2,4-oxadiazol-5-yl]-1-[4-(4-methoxyphenyl)piperazin-1-yl]propan-1-one] |
| 1920 nM | COc1ccc(-c2noc(CCC(=O)N3CCN(c4cccc(C(F)(F)F)c4)CC3)n2)cc1 [1-{3-[3-(4-methoxyphenyl)-1,2,4-oxadiazol-5-yl]propanoyl}-4-[3-(trifluoromethyl)phenyl]piperazine] |
| 2740 nM | COc1ccc(-c2noc(CCC(=O)N3CCN(c4cc(C)ccc4C)CC3)n2)cc1 [1-[4-(2,5-dimethylphenyl)-1-piperazinyl]-3-[3-(4-methoxyphenyl)-1,2,4-oxadiazol-5-yl]-1-propanone] |
| 12100 nM | COc1ccc(-c2noc(CCC(=O)N3CCN(c4cccc(OC)c4)CC3)n2)cc1 [KUC103349N] |
